According to ChEMBL document CHEMBL1201862, “PubChem BioAssay data set” (2004):
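Compound exposure: 48 hours, 5 concentrations, 96-well plates. GI50 marks 50% less growth.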 Activity calls are given as the source filed them. Cut-off read from the data, not from the text of the source: active = GI50 up to about 1.1 µM and inactive = higher.

Legend:
Experiment in all cases: DTP human tumour cell line panel, 48 h
[1] = system: MDA-MB-231
[2] = system: NCI-H23
[3] = system: NCI-H460
[4] = system: HCC 2998
[5] = system: MDA-MB-435
[6] = system: T47D
[7] = system: Hs-578T
[8] = system: MOLT-4
[9] = system: A549
[10] = system: KM12
[11] = system: Malme-3M
[12] = system: OVCAR-3
[13] = system: HT-29
[14] = system: 786-0
[15] = system: TK-10
[16] = system: IGROV-1
[17] = system: NCI-H522
[18] = system: SF-268
[19] = system: SK-MEL-2

SMILES	GI50 [1]	GI50 [2]	GI50 [3]	GI50 [4]	GI50 [5]	GI50 [6]	GI50 [7]	GI50 [8]	GI50 [9]	GI50 [10]	GI50 [11]	GI50 [12]	GI50 [13]	GI50 [14]	GI50 [15]	GI50 [16]	GI50 [17]	GI50 [18]	GI50 [19]
COc1c(-c2nc3ccc(N4CCN(C)CC4)nc3[nH]2)cc(OC)c2[nH]c(CO)nc12	44.1 µM (inactive)	> 100 µM (inactive)	> 100 µM (inactive)	38.2 µM (inactive)	56.8 µM (inactive)	37.1 µM (inactive)	> 100 µM (inactive)	52.2 µM (inactive)	> 100 µM (inactive)	93.5 µM (inactive)	> 100 µM (inactive)	39.3 µM (inactive)	> 100 µM (inactive)	69.3 µM (inactive)	> 100 µM (inactive)	> 100 µM (inactive)	52.4 µM (inactive)	92.3 µM (inactive)	32 µM (inactive)
O=c1oc2ccc3ccccc3c2cc1-c1nc2ccccc2o1	16.8 µM (inactive)	27.4 µM (inactive)	27.5 µM (inactive)	61.1 µM (inactive)	23.2 µM (inactive)	3.17 µM (inactive)	21.4 µM (inactive)	35.2 µM (inactive)	28.2 µM (inactive)	27.3 µM (inactive)	13.7 µM (inactive)	15.3 µM (inactive)	20.7 µM (inactive)	18.6 µM (inactive)	> 52.1 µM (inactive)	12.7 µM (inactive)	21.3 µM (inactive)	22.1 µM (inactive)	20.6 µM (inactive)
CCN(CC)c1cc2c3c(c1)CCCN3CCC2	> 10 µM (inactive)	> 10 µM (inactive)	> 10 µM (inactive)	> 10 µM (inactive)	> 10 µM (inactive)	> 10 µM (inactive)	> 10 µM (inactive)	> 10 µM (inactive)	> 10 µM (inactive)	> 10 µM (inactive)	> 10 µM (inactive)	> 10 µM (inactive)	> 10 µM (inactive)	> 10 µM (inactive)	> 10 µM (inactive)	> 10 µM (inactive)	> 10 µM (inactive)	> 10 µM (inactive)	> 10 µM (inactive)
N#Cc1ccccc1NC(=O)/C(=N\NC(=O)c1ccncc1)C(c1cnc2ccc([N+](=O)[O-])cc2n1)[N+](=O)[O-] (centres undefined)	> 100 µM (inactive)	> 100 µM (inactive)	64.6 µM (inactive)	> 100 µM (inactive)	74.8 µM (inactive)	> 100 µM (inactive)	> 100 µM (inactive)	80 µM (inactive)	97.9 µM (inactive)	39.9 µM (inactive)	> 100 µM (inactive)	> 100 µM (inactive)	> 100 µM (inactive)	> 100 µM (inactive)	> 100 µM (inactive)	95.9 µM (inactive)	33 µM (inactive)	> 100 µM (inactive)	> 100 µM (inactive)
NC1CC(=O)c2csc(Cl)c21 (centres undefined)	9.46 µM (inactive)	20.7 µM (inactive)	22.5 µM (inactive)	17.6 µM (inactive)	12.8 µM (inactive)	3.98 µM (inactive)	35.5 µM (inactive)	1.48 µM (inactive)	17.9 µM (inactive)	0.736 µM (active)	2.68 µM (inactive)	6.38 µM (inactive)	10.3 µM (inactive)	1.55 µM (inactive)	11.5 µM (inactive)	15.7 µM (inactive)	1.72 µM (inactive)	10.1 µM (inactive)	12.9 µM (inactive)
COC(=O)[C@]12CC[C@H]3CN(C(=O)OCc4ccccc4)[C@H]([C@H]31)[C@H](c1ccco1)N2S(=O)(=O)c1ccc(C)cc1	35 µM (inactive)	24.7 µM (inactive)	26.5 µM (inactive)	19.5 µM (inactive)	23.3 µM (inactive)	27.6 µM (inactive)	73.5 µM (inactive)	21.8 µM (inactive)	31.8 µM (inactive)	19.3 µM (inactive)	21.3 µM (inactive)	19.1 µM (inactive)	20.6 µM (inactive)	17.5 µM (inactive)	33.2 µM (inactive)	20.5 µM (inactive)	19.2 µM (inactive)	24.2 µM (inactive)	20.7 µM (inactive)
